This is an account of results in US8394801B2, “Quinoxaline derivatives and their use for treating benign and malignant tumour disorders” (Aeterna Zentaris GmbH, priority 2009, dated 2013).

For series [1], the system named is NCI-H460. As to the kind of experiment: Proliferation assay (Alamar Blue / XTT), NCI-H460. The series is classed as cell-based. The note with it: Homo sapiens; cell line NCI-H460 (lung).
The test system of series [2] is SKOV-3. Put plainly: Proliferation assay (Alamar Blue / XTT), SKOV-3. The series is classed as cell-based. The note with it: Homo sapiens, SK-OV-3; cell line SKOV-3 (ovaries).
Series [3] deals with HCT116. As to the kind of experiment: Proliferation assay (Alamar Blue / XTT), HCT116. The series is classed as cell-based. To be noted: Homo sapiens; cell line HCT-116 (colon).
Series [4] deals with MDA MB468. Put plainly: Proliferation assay (Alamar Blue / XTT), MDA MB468. Type of series: cell-based. To be noted: Homo sapiens, MDA-MB-468; cell line MDA-MB468 (breast).
Series [5] deals with PC-3. Put plainly: Proliferation assay (Alamar Blue / XTT), PC-3. The note with it: Homo sapiens, cell line PC3 (prostate). The series is classed as cell-based.
The subject of series [6] is A549. As to the kind of experiment: Proliferation assay (Alamar Blue / XTT), A549. To be noted: Homo sapiens; cell line A549 (lung). Type of series: cell-based.
For series [7], the system named is U87MG. Put plainly: Proliferation assay (Alamar Blue / XTT), U87MG. Type of series: cell-based. The note with it: Homo sapiens, U-87 MG; cell line U87MG (glioma).
Series [8] concerns RKOP27. As to the kind of experiment: Proliferation assay (Alamar Blue / XTT), RKOP27. The series is classed as cell-based. The note with it: Homo sapiens; cell line RKOp27 (colon).

For `Cc1cc(-c2ccc3ncc(NC(=O)NC(C)(C)C)nc3c2)cc(C)c1O` [Compound 9, 1-tert-Butyl-3-[7-(4-hydroxy-3,5-dimethylphenyl)quinoxalin-2-yl]urea], the EC50 in series [1] came out at 238 nM; in series [2], 248 nM; in series [3] it was 229 nM; in [4] it was 263 nM; in series [5], 112 nM; in series [6], 289 nM. The concentration giving a half-maximal response (EC50) in series [7] is 181 nM; in [8], 176 nM.

On to `Cc1cc(-c2ccc3ncc(NC(=O)NC4CCCCC4)nc3c2)cc(C)c1O` [Compound 12, 1-Cyclohexyl-3-[7-(4-hydroxy-3,5-dimethylphenyl)quinoxalin-2-yl]urea], for which the EC50 in [1] came to 85 nM; in series [2] it was 67 nM; in series [3], 42 nM; in series [4], 125 nM; in series [5] it was 51 nM; in [6] it was 76 nM. In series [7], this compound came in with an EC50 of 77 nM.

For `Cc1cc(-c2ccc3ncc(NC(=O)Nc4cccs4)nc3c2)cc(C)c1O` [Compound 15, 1-[7-(4-Hydroxy-3,5-dimethylphenyl)quinoxalin-2-yl]-3-thiophen-2-ylurea], the EC50 in series [1] was determined as 714 nM; in series [2] it was 1810 nM; in series [3], 475 nM; in series [4], 835 nM; in series [5] it was 309 nM; in [6], 836 nM. Further, the EC50 in series [7] came out at 1340 nM.

`CCCCNC(=O)Nc1cnc2ccc(-c3cc(C)c(O)c(C)c3)cc2n1` [Compound 18, 1-Butyl-3-[7-(4-hydroxy-3,5-dimethylphenyl)quinoxalin-2-yl]urea]: the melting point lay in the range of 276 to 280 °C. This compound gave an EC50 in [1] of 38 nM. This compound returned an EC50 in [2] of 32 nM. In addition, the EC50 in [3] was determined as 21 nM. The EC50 in series [4] is 30 nM. Further, the EC50 in series [5] was 16 nM. A half-maximal response in series [6] (EC50) required 46 nM. Besides, the EC50 in series [7] was 8 nM.

Regarding `Cc1cc(-c2ccc3ncc(NC(=S)NC(C)C)nc3c2)cc(C)c1O` [Compound 31, 1-[7-(4-Hydroxy-3,5-dimethylphenyl)quinoxalin-2-yl]-3-isopropylthiourea], the melting point lay in the range of 269 to 271 °C. The midpoint of the response in [1], the EC50, lay at 60 nM. The same compound displayed an EC50 in series [2] of 45 nM. The same compound displayed an EC50 in series [3] of 30 nM. This compound came in with an EC50 in series [4] of 25 nM. Besides, the EC50 in [5] was determined as 15 nM. Further, the EC50 in [6] worked out at 23 nM. The same compound yielded an EC50 in series [7] of 13 nM.

For the compound `CCCCNC(=S)Nc1cnc2ccc(-c3cc(C)c(O)c(C)c3)cc2n1` [Compound 32, 1-Butyl-3-[7-(4-hydroxy-3,5-dimethylphenyl)quinoxalin-2-yl]thiourea], the melting point was in the range of 278 to 280 °C. Moreover, in series [1], the EC50 was 30 nM. This compound also returned an EC50 in series [2] of 27 nM. In addition, in series [3], the response was half-maximal at 16 nM (EC50). The EC50 in [4] was 20 nM. Also, in series [5], the midpoint of the response, the EC50, lay at 9 nM. A half-maximal response in series [6] (EC50) required 9 nM. In series [7], the EC50 came out at 3 nM.

Turning to `Cc1cc(-c2ccc3ncc(NC(=S)NC4CCC4)nc3c2)cc(C)c1O` [Compound 34, 1-Cyclobutyl-3-[7-(4-hydroxy-3,5-dimethylphenyl)quinoxalin-2-yl]-thiourea], the melting point lay within 285 to 286 °C. In [1], the EC50 was determined as 52 nM. Besides, in [2], the EC50 is 50 nM. The EC50 in series [3] was determined as 36 nM. This compound gave an EC50 in series [4] of 30 nM. Moreover, the response in [5] was half-maximal at 12 nM (EC50). In addition, the EC50 in [6] worked out at 16 nM. Besides, the midpoint of the response in series [7], the EC50, lay at 224 nM. Also, a half-maximal response in series [8] (EC50) required 58 nM.

`CCCNC(=O)Nc1cnc2ccc(-c3cc(C)c(O)c(C)c3)cc2n1` [Compound 36, 1-[7-(4-Hydroxy-3,5-dimethylphenyl)quinoxalin-2-yl]-3-propylurea] registered a melting point of 276 to 277 °C. The compound also had an EC50 in [1] of 64 nM. This compound came in with an EC50 in [2] of 42 nM. The midpoint of the response in series [3], the EC50, lay at 43 nM. The EC50 in [4] was 43 nM. The compound also registered an EC50 in series [5] of 9 nM. This compound displayed an EC50 in [6] of 34 nM. The EC50 in [7] is 111 nM.

As for `C=CCNC(=O)Nc1cnc2ccc(-c3cc(C)c(O)c(C)c3)cc2n1` [Compound 41, 1-Allyl-3-[7-(4-hydroxy-3,5-dimethylphenyl)quinoxalin-2-yl]urea], the EC50 in series [1] is 218 nM; in series [3] it was 91 nM; in series [4], 131 nM; in series [5], 76 nM; in [6], 217 nM; in series [7], 105 nM.

In turn, `O=C(Nc1cnc2ccc(-c3cc(Cl)c(O)c(Cl)c3)cc2n1)NC1CCCCCC1` [Compound 78, 1-Cycloheptyl-3-[7-(3,5-dichloro-4-hydroxy-phenyl)-quinoxalin-2-yl]-urea] showed a melting point of 283 to 286 °C. Moreover, the EC50 in series [3] was determined as 809 nM. Moreover, the EC50 in series [4] amounted to 436 nM. It took 306 nM to reach a half-maximal effect in series [5] (EC50). In [6], this compound had an EC50 of 1180 nM. Further, the EC50 in [7] amounted to 3110 nM.

Take `O=C(Nc1cnc2ccc(-c3cc(Cl)c(O)c(Cl)c3)cc2n1)NC1CCCCCCC1` [Compound 79, 1-Cyclooctyl-3-[7-(3,5-dichloro-4-hydroxy-phenyl)-quinoxalin-2-yl]-urea]: the melting point lay in the range of 258 to 260 °C. In series [3], this compound had an EC50 of 503 nM. The compound also registered an EC50 in series [4] of 253 nM. The compound further yielded an EC50 in series [5] of 300 nM. In series [6], this compound came in with an EC50 of 1030 nM. The EC50 in [7] was 1160 nM.

In the case of `Oc1c(Cl)cc(-c2ccc3ncc(NC(=S)NC4CCC4)nc3c2)cc1Cl` [Compound 80, 1-Cyclobutyl-3-[7-(3,5-dichloro-4-hydroxy-phenyl)-quinoxalin-2-yl]-thiourea], the melting point lay within 277 to 280 °C. In series [3], this compound gave an EC50 of 1710 nM. Moreover, a half-maximal response in series [4] (EC50) required 672 nM. Further, in series [5], the EC50 worked out at 1190 nM. This compound also came in with an EC50 in [6] of 2040 nM. Moreover, the EC50 in series [7] turned out to be 2000 nM.

With `Oc1c(Cl)cc(-c2ccc3ncc(NC(=S)NC4CC4)nc3c2)cc1Cl` [Compound 83, 1-Cyclopropyl-3-[7-(3,5-dichloro-4-hydroxy-phenyl)-quinoxalin-2-yl]-thiourea], the melting point was 260 to 262 °C. The EC50 in [3] was 2090 nM. Further, it took 1050 nM to reach a half-maximal effect in series [4] (EC50). The compound further yielded an EC50 in series [5] of 955 nM. The EC50 in series [6] was found to be 2290 nM. Moreover, the response in series [7] was half-maximal at 1970 nM (EC50).

`CCCCNC(=S)Nc1cnc2ccc(-c3cc(Cl)c(O)c(Cl)c3)cc2n1` [Compound 87, 1-Butyl-3-[7-(3,5-dichloro-4-hydroxy-phenyl)-quinoxalin-2-yl]thiourea] had a melting point of 226 to 227 °C. The compound further had an EC50 in series [3] of 1090 nM. This compound returned an EC50 in series [4] of 464 nM. The compound also returned an EC50 in series [5] of 790 nM. The compound further returned an EC50 in series [6] of 1530 nM. In addition, the EC50 in series [7] came to 2490 nM.

As for `CCCCCNC(=S)Nc1cnc2ccc(-c3cc(Cl)c(O)c(Cl)c3)cc2n1` [Compound 90, 1-[7-(3,5-Dichloro-4-hydroxy-phenyl)-quinoxalin-2-yl]-3-pentyl-thiourea], the melting point fell in the range of 237 to 238 °C. In addition, in [3], the midpoint of the response, the EC50, lay at 1010 nM. The EC50 in [4] amounted to 318 nM. This compound registered an EC50 in series [5] of 556 nM. For the same compound, the EC50 in [6] was 1090 nM. In series [7], this compound displayed an EC50 of 1230 nM.

In the case of `Oc1c(Cl)cc(-c2ccc3ncc(NC(=S)NC4CCCCCCC4)nc3c2)cc1Cl` [Compound 93, 1-Cyclooctyl-3-[7-(3,5-dichloro-4-hydroxy-phenyl)-quinoxalin-2-yl]-thiourea], the melting point fell in the range of 288 to 289 °C. The compound further had an EC50 in [3] of 409 nM. Also, the EC50 in series [4] was determined as 193 nM. The compound further yielded an EC50 in series [5] of 334 nM. Besides, in [6], the EC50 is 1030 nM. The compound further returned an EC50 in series [7] of 1800 nM.

In turn, `Oc1c(Cl)cc(-c2ccc3ncc(NC(=S)NCc4ccccc4)nc3c2)cc1Cl` [Compound 94, 1-Benzyl-3-[7-(3,5-dichloro-4-hydroxy-phenyl)-quinoxalin-2-yl]-thiourea] showed a melting point of 275 to 277 °C. Moreover, the EC50 in [3] was determined as 586 nM. Besides, a half-maximal effect in [4] (EC50) was put at 169 nM. In [5], this compound gave an EC50 of 821 nM. This compound gave an EC50 in [6] of 891 nM. This compound came in with an EC50 in series [7] of 2080 nM.

Turning to `Oc1c(Cl)cc(-c2ccc3ncc(NC(=S)NCCCc4ccccc4)nc3c2)cc1Cl` [Compound 96, 1-[7-(3,5-Dichloro-4-hydroxy-phenyl)-quinoxalin-2-yl]-3-(3-phenyl-propyl)-thiourea], the melting point lay within 248 to 250 °C. This compound had an EC50 in series [3] of 1540 nM. Further, the response in series [4] was half-maximal at 1040 nM (EC50). For the same compound, a half-maximal effect in series [5] (EC50) was put at 1650 nM. This compound came in with an EC50 in series [6] of 1820 nM. Also, the EC50 in series [7] was found to be 2350 nM.

The compound `Oc1c(Cl)cc(-c2ccc3ncc(NC(=S)NCCc4ccccc4)nc3c2)cc1Cl` [Compound 97, 1-[7-(3,5-Dichloro-4-hydroxy-phenyl)-quinoxalin-2-yl]-3-phenethyl-thiourea] had a melting point of 282 to 285 °C. In addition, the response in series [3] was half-maximal at 700 nM (EC50). In addition, the EC50 in series [4] came out at 568 nM. This compound also returned an EC50 in series [5] of 538 nM. The compound also came in with an EC50 in series [6] of 1510 nM. In [7], this compound yielded an EC50 of 1820 nM.
